{
  "source": "paper PMC11491004",
  "about": "“CHF6523 data suggest that the phosphoinositide 3-kinase delta isoform is not a suitable target for the management of COPD” (Respiratory Research, 2024)",
  "key": {"[1]": {"test": "Safety and tolerability: adverse events", "conditions": "safety set N = 42"}, "proteins in sputum": {"test_system": "proteins in sputum", "test": "Olink proteomics in sputum (Target 96 Inflammation and Target 48 Cytokine panels)", "format": "in vivo, human", "experimental": "For the proteomics evaluation, sputum samples were run on the Target 48 Cytokine panel, and the Target 96 Inflammation panel (Olink Protemics, Uppsala, Sweden). In the Target 48 Cytokine panel, 45 cytokines were quantified in terms of their absolute concentration. For the Target 96 Inflammation panel, 92 proteins involved in inflammation processes were evaluated, with the results expressed as Normalized Protein eXpression (NPX; the manufacturer’s arbitrary unit, in Log2 scale). […] In the statistical model, using sputum Target 96 and 48 data, change from pre-dose to post-dose expression were used as dependent variable, and patient, period, treatment and pre-dose expression as independent variable."}, "[2]": {"test_system": "ion channels implicated in the cough reflex", "test": "Electrophysiology in-vitro examination", "format": "biochemical"}, "sputum cell counts": {"test_system": "sputum cell counts", "test": "Cell count in induced sputum", "format": "in vivo, human", "conditions": "p < 0.05", "experimental": "(§1) All assessment timings were based on the morning dose. Pre-dose on Days 1 and 28 of each treatment period, blood samples were taken for pharmacokinetic analyses, followed by forced oscillation (including slow vital capacity manoeuvres for inspiratory capacity [IC] and vital capacity [VC]), spirometry (forced expiratory volume in 1 s [FEV1] and forced vital capacity [FVC]), and the COPD Assessment Test (CAT). Blood samples were also taken up to 12 h post-dose on Days 1 and 28 for pharmacokinetic analyses, with blood samples for biomarker assessment pre-dose on Day 1 and 2 h post-dose on Day 28, and spirometry pre-dose on Days 20 and 24. […]\n(§2) Fold-change from baseline in cell counts, target biomarkers in sputum and blood, and PIP3 were log-transformed and analysed using an analysis of covariance (ANCOVA) model, with treatment, patient, and period as fixed effects, and baseline value as covariate. Changes from baseline in spirometry, forced oscillation and CAT endpoints were analysed using a similar ANCOVA model, but without log transformation. Rescue medication data were analysed using an analysis of variance model, including treatment, period and patient as fixed effects. […]\nTo induce sputum, patients with FEV1 ≥0.8 L inhaled nebulised hypertonic saline at increasing concentrations (3%, then 4% and finally 5%), with FEV1 monitored for safety after each concentration. […]"}, "[3]": {"test_system": "target biomarkers in plasma", "test": "Target biomarkers in plasma", "format": "in vivo, human", "conditions": "p < 0.05", "experimental": "as §1, §2"}, "[4]": {"conditions": "Parts 1 and 2, single and multiple ascending dose; some mild inhalation-related cough; cited from earlier work"}},
  "data": [
    {"smiles": "C[C@@H](c1oc(=O)c2ccccc2c1-c1cccc(CN2CCN(C)CC2)c1)n1nc(-c2cncc(O)c2)c2c(N)ncnc21", "note": "[CHF6523]", "values": [
      {"measurement": "Adverse events leading to death", "setting": "[1]", "value": "0 Patients (%)"},
      {"measurement": "Adverse events: COVID-19", "setting": "[1]", "value": "5 (11.9%) Patients (%)"},
      {"measurement": "Fold change in the Olink panels: IL-1B", "setting": "proteins in sputum", "value": 0.771},
      {"measurement": "Fold change in the Olink panels: IL-6", "setting": "proteins in sputum", "value": 1.516},
      {"measurement": "Fold change in the Olink panels: IL-8", "setting": "proteins in sputum", "value": 1.151},
      {"measurement": "Fold change in the Olink panels: MCP-1", "setting": "proteins in sputum", "value": 0.732},
      {"measurement": "Fold change in the Olink panels: TNF", "setting": "proteins in sputum", "value": 0.821},
      {"measurement": "Proteins significantly modulated by treatment, of the 74 evaluated", "setting": "proteins in sputum; FDR < 0.05", "value": "none were significantly modulated by treatment"},
      {"measurement": "Impact on ion channels implicated in the cough reflex", "setting": "[2]", "value": "no discernible impact"},
      {"measurement": "CHF6523–placebo differences in sputum cell counts", "setting": "sputum cell counts", "value": "no statistically significant"},
      {"measurement": "CHF6523–placebo differences in the target biomarkers in plasma", "setting": "[3]", "value": "no statistically significant"},
      {"measurement": "Safety profile in healthy volunteers", "setting": "[4]", "value": "acceptable safety profile"}
    ]}
  ]
}
